Measured values reported in patent US20250176599A1, “FLAVOR COMPOSITION AND FOOD AND BEVERAGE” (TAKASAGO INTERNATIONAL CORPORATION, priority 2021, published 2025).

Columns and labels:
[1] = Sensory evaluation of aqueous solution I containing (E)-2-nonenal 1 ppb: off-flavor intensity and masking component intensity; conditions: (E)-2-nonenal 1 ppb, average score 0-4
Method in brief: (§1)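 Eight trained panelists tasted water solutions of the off-flavor compounds spiked with nootkatone. Masking-agent taste was scored absolutely from 0 (not sensed) to 4 (strong). Off-flavor was scored relatively, anchored at 4 for the solution without masker and 0 for ion-exchanged water.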

[2] = Sensory evaluation of aqueous solution II containing (E)-2-octenal 10 ppb: off-flavor intensity and masking component intensity; conditions: (E)-2-octenal 10 ppb, average score 0-4
Method in brief: as §1

[3] = Sensory evaluation of aqueous solution III containing 1-octen-3-one 1 ppb: off-flavor intensity and masking component intensity; conditions: 1-octen-3-one 1 ppb, average score 0-4
Method in brief: as §1

[4] = Sensory evaluation of aqueous solution IV containing 1,5-octadien-3-one 100 ppt: off-flavor intensity and masking component intensity; conditions: aqueous solution IV, 1,5-octadien-3-one 100 ppt, average score 0-4
Method in brief: as §1

[5] = Sensory evaluation of aqueous solution V containing 1-octen-3-ol 10 ppb: off-flavor intensity and masking component intensity; conditions: 1-octen-3-ol 10 ppb, average score 0-4
Method in brief: as §1

[6] = Sensory evaluation of aqueous solution VI containing 1,5-octadien-3-ol 10 ppb: off-flavor intensity and masking component intensity; conditions: aqueous solution VI, 1,5-octadien-3-ol 10 ppb, average score 0-4
Method in brief: as §1

[7] = Overall conclusion of the sensory evaluation across aqueous solutions I to VI
Method in brief: as §1

With `C/C=C/C(=O)C1=C(C)C=CCC1(C)C` [β-Damascenone, β-damascenone] the “Off-Flavor Intensity” value ([1]; 0.001 ppt added) was 3.5 points, the “Off-Flavor Intensity” value ([1]; 0.01 ppt added) was 3.5 points and the “Off-Flavor Intensity” value ([1]; 0.1 ppt added) was 2.9 points. The “Off-Flavor Intensity” value ([1]; 1 ppb added) was 1.8 points, the “Off-Flavor Intensity” value ([1]; 1 ppt added) was 2.5 points and the “Off-Flavor Intensity” value ([1]; 10 ppb added) was 1.4 points. The “Off-Flavor Intensity” value ([1]; 10 ppt added) was 2.4 points, the “Off-Flavor Intensity” value ([1]; 100 ppb added) was 1.0 points and the “Off-Flavor Intensity” value ([1]; 100 ppt added) was 2.3 points. The “Off-Flavor Intensity” value ([2]; 0.001 ppt added) was 2.9 points, the “Off-Flavor Intensity” value ([2]; 0.01 ppt added) was 2.8 points and the “Off-Flavor Intensity” value ([2]; 0.1 ppt added) was 2.4 points. For the same compound, the “Off-Flavor Intensity” value ([2]; 1 ppb added) was 1.1 points, the “Off-Flavor Intensity” value ([2]; 1 ppt added) was 2.1 points and the “Off-Flavor Intensity” value ([2]; 10 ppb added) was 0.9 points. The “Off-Flavor Intensity” value ([2]; 10 ppt added) was 1.9 points, the “Off-Flavor Intensity” value ([2]; 100 ppb added) was 0.8 points and the “Off-Flavor Intensity” value ([2]; 100 ppt added) was 1.4 points. For the same compound, the “Off-Flavor Intensity” value ([3]; 0.001 ppt added) was 3.6 points, the “Off-Flavor Intensity” value ([3]; 0.01 ppt added) was 3.6 points and the “Off-Flavor Intensity” value ([3]; 0.1 ppt added) was 3.3 points. For the same compound, the “Off-Flavor Intensity” value ([3]; 1 ppb added) was 1.9 points, the “Off-Flavor Intensity” value ([3]; 1 ppt added) was 2.9 points and the “Off-Flavor Intensity” value ([3]; 10 ppb added) was 1.4 points. For the same compound, the “Off-Flavor Intensity” value ([3]; 10 ppt added) was 2.5 points, the “Off-Flavor Intensity” value ([3]; 100 ppb added) was 1.3 points and the “Off-Flavor Intensity” value ([3]; 100 ppt added) was 2.3 points. The “Off-Flavor Intensity” value ([4]; 0.001 ppt added) was 3.5 points, the “Off-Flavor Intensity” value ([4]; 0.01 ppt added) was 3.4 points and the “Off-Flavor Intensity” value ([4]; 0.1 ppt added) was 3.3 points. For the same compound, the “Off-Flavor Intensity” value ([4]; 1 ppb added) was 2.3 points, the “Off-Flavor Intensity” value ([4]; 1 ppt added) was 3.1 points and the “Off-Flavor Intensity” value ([4]; 10 ppb added) was 1.6 points. The “Off-Flavor Intensity” value ([4]; 10 ppt added) was 2.8 points, the “Off-Flavor Intensity” value ([4]; 100 ppb added) was 1.6 points and the “Off-Flavor Intensity” value ([4]; 100 ppt added) was 2.5 points. For the same compound, the “Off-Flavor Intensity” value ([5]; 0.001 ppt added) was 3.4 points, the “Off-Flavor Intensity” value ([5]; 0.01 ppt added) was 3.1 points and the “Off-Flavor Intensity” value ([5]; 0.1 ppt added) was 2.6 points. For the same compound, the “Off-Flavor Intensity” value ([5]; 1 ppb added) was 1.5 points, the “Off-Flavor Intensity” value ([5]; 1 ppt added) was 2.4 points and the “Off-Flavor Intensity” value ([5]; 10 ppb added) was 1.1 points. The “Off-Flavor Intensity” value ([5]; 10 ppt added) was 2.4 points, the “Off-Flavor Intensity” value ([5]; 100 ppb added) was 0.8 points and the “Off-Flavor Intensity” value ([5]; 100 ppt added) was 2.0 points. For the same compound, the “Off-Flavor Intensity” value ([6]; 0.001 ppt added) was 2.6 points, the “Off-Flavor Intensity” value ([6]; 0.01 ppt added) was 2.1 points and the “Off-Flavor Intensity” value ([6]; 0.1 ppt added) was 1.9 points. For the same compound, the “Off-Flavor Intensity” value ([6]; 1 ppb added) was 0.6 points, the “Off-Flavor Intensity” value ([6]; 1 ppt added) was 1.7 points and the “Off-Flavor Intensity” value ([6]; 10 ppb added) was 0.2 points. For the same compound, the “Off-Flavor Intensity” value ([6]; 10 ppt added) was 1.3 points, the “Off-Flavor Intensity” value ([6]; 100 ppb added) was 0.0 points and the “Off-Flavor Intensity” value ([6]; 100 ppt added) was 0.9 points. The “concentration that masks the off-flavor and does not affect the flavor of the food and/or beverage itself, lower limit” value [7] was ≥ 0.001 ppt and the “concentration that masks the off-flavor and does not affect the flavor of the food and/or beverage itself, upper limit” value [7] was ≤ 10 ppb.
In the case of `CC(=O)/C=C/C1=C(C)CCCC1(C)C` [β-Ionone, β-ionone], the “Off-Flavor Intensity” value ([1]; 0.01 ppt added) was 3.4 points, the “Off-Flavor Intensity” value ([1]; 0.1 ppt added) was 3.1 points and the “Off-Flavor Intensity” value ([1]; 1 ppb added) was 1.8 points. The “Off-Flavor Intensity” value ([1]; 1 ppm added) was 0.5 points, the “Off-Flavor Intensity” value ([1]; 1 ppt added) was 2.6 points and the “Off-Flavor Intensity” value ([1]; 10 ppb added) was 1.4 points. For the same compound, the “Off-Flavor Intensity” value ([1]; 10 ppt added) was 2.6 points, the “Off-Flavor Intensity” value ([1]; 100 ppb added) was 0.8 points and the “Off-Flavor Intensity” value ([1]; 100 ppt added) was 2.3 points. For the same compound, the “Off-Flavor Intensity” value ([2]; 0.01 ppt added) was 3.1 points, the “Off-Flavor Intensity” value ([2]; 0.1 ppt added) was 3.0 points and the “Off-Flavor Intensity” value ([2]; 1 ppb added) was 1.6 points. The “Off-Flavor Intensity” value ([2]; 1 ppm added) was 0.1 points, the “Off-Flavor Intensity” value ([2]; 1 ppt added) was 2.6 points and the “Off-Flavor Intensity” value ([2]; 10 ppb added) was 1.4 points. For the same compound, the “Off-Flavor Intensity” value ([2]; 10 ppt added) was 2.3 points, the “Off-Flavor Intensity” value ([2]; 100 ppb added) was 0.8 points and the “Off-Flavor Intensity” value ([2]; 100 ppt added) was 2.0 points. For the same compound, the “Off-Flavor Intensity” value ([3]; 0.01 ppt added) was 3.5 points, the “Off-Flavor Intensity” value ([3]; 0.1 ppt added) was 3.3 points and the “Off-Flavor Intensity” value ([3]; 1 ppb added) was 2.0 points. For the same compound, the “Off-Flavor Intensity” value ([3]; 1 ppm added) was 0.8 points, the “Off-Flavor Intensity” value ([3]; 1 ppt added) was 3.0 points and the “Off-Flavor Intensity” value ([3]; 10 ppb added) was 1.6 points. For the same compound, the “Off-Flavor Intensity” value ([3]; 10 ppt added) was 2.8 points, the “Off-Flavor Intensity” value ([3]; 100 ppb added) was 1.4 points and the “Off-Flavor Intensity” value ([3]; 100 ppt added) was 2.5 points. For the same compound, the “Off-Flavor Intensity” value ([4]; 0.01 ppt added) was 3.8 points, the “Off-Flavor Intensity” value ([4]; 0.1 ppt added) was 3.5 points and the “Off-Flavor Intensity” value ([4]; 1 ppb added) was 2.5 points. For the same compound, the “Off-Flavor Intensity” value ([4]; 1 ppm added) was 1.0 points, the “Off-Flavor Intensity” value ([4]; 1 ppt added) was 3.5 points and the “Off-Flavor Intensity” value ([4]; 10 ppb added) was 2.3 points. The “Off-Flavor Intensity” value ([4]; 10 ppt added) was 3.4 points, the “Off-Flavor Intensity” value ([4]; 100 ppb added) was 1.6 points and the “Off-Flavor Intensity” value ([4]; 100 ppt added) was 3.0 points. For the same compound, the “Off-Flavor Intensity” value ([5]; 0.01 ppt added) was 3.3 points, the “Off-Flavor Intensity” value ([5]; 0.1 ppt added) was 3.0 points and the “Off-Flavor Intensity” value ([5]; 1 ppb added) was 1.8 points. The “Off-Flavor Intensity” value ([5]; 1 ppm added) was 0.3 points, the “Off-Flavor Intensity” value ([5]; 1 ppt added) was 2.5 points and the “Off-Flavor Intensity” value ([5]; 10 ppb added) was 1.4 points. The “Off-Flavor Intensity” value ([5]; 10 ppt added) was 2.5 points, the “Off-Flavor Intensity” value ([5]; 100 ppb added) was 0.8 points and the “Off-Flavor Intensity” value ([5]; 100 ppt added) was 2.3 points. The “Off-Flavor Intensity” value ([6]; 0.01 ppt added) was 3.3 points, the “Off-Flavor Intensity” value ([6]; 0.1 ppt added) was 2.9 points and the “Off-Flavor Intensity” value ([6]; 1 ppb added) was 1.8 points. The “Off-Flavor Intensity” value ([6]; 1 ppm added) was 0.4 points, the “Off-Flavor Intensity” value ([6]; 1 ppt added) was 2.6 points and the “Off-Flavor Intensity” value ([6]; 10 ppb added) was 1.5 points. The “Off-Flavor Intensity” value ([6]; 10 ppt added) was 2.3 points, the “Off-Flavor Intensity” value ([6]; 100 ppb added) was 0.8 points and the “Off-Flavor Intensity” value ([6]; 100 ppt added) was 2.1 points. For the same compound, the “concentration that masks the off-flavor and does not affect the flavor of the food and/or beverage itself, lower limit” value [7] was ≥ 0.1 ppt and the “concentration that masks the off-flavor and does not affect the flavor of the food and/or beverage itself, upper limit” value [7] was ≤ 100 ppb.
